Results: patent publication US3939268A, “2,4-Diamino substituted pyridol(3,2-d)pyrimidine as antithrombotic agents” (Boehringer Ingelheim GmbH, priority 1971, dated 1976)
Counter-ions that a name gives are not always drawn.

Columns and labels:
[1] = acute toxicity (LD50); details: mouse, in vivo, po, mice, observation time 14 days; for mortality at 336 h: p.o., printed with LD50 >250 mg/kg, read-out: animals died
Procedure: 3. The acute toxicity of some of the compounds for orientation (observationtime : 14 days) was determined on mice, or the LD50 was calculated from the percentage of animals which died after different doses within the observation time [see J. Pharmacol. exper. Therap. 96, 99(1949)].

[2] = system: thrombocyte aggregation / platelet stickiness (human blood); assay: retention test according to Morris (reduction in platelet stickiness, glass beads); type: cell-based; details: 5×10^-5 mol/liter, 10 minutes at 37°C, average of 4 - 6 determinations; for inhibition at 50 µM: Platelet, 10 min
Procedure: The inhibiting effect upon the platelet stickiness was determined by means of the so-called retention test according to Morris [see E. Deutsch et al, 1.Internationales Symposium uber Stoffwechsel and Membranpermeabilitat von Erythrocyten and Thrombocyten, Vienna, Austria (1969); Georg Thieme Verlag, Stuttgart, Germany]. […] To determine the inhibiting action of the test compound upon thrombocyte aggregation, 1 ml of human blood is pipetted into small test tubes, and the test compound is added to a final concentration of 5×10^^-5 mol/liter. The tubes are incubated for 10 minutes at 37°C. 1 gm of glass beads (glass beads for gas-chromatography) is added to half of the tubes. Finally the closed tubes are attached to a vertical wheel and rotated for 1 minute. By this means good contact is obtained between the glass beads and the blood. The tubes are then allowed to stand at room temperature for another hour, after which time a satisfactory sedimentation of erythrocytes has taken place. 0.01 ml of the supernatant plasma is removed, diluted to 1 : 8,000 with celloscope solution, and the platelet count is read in the celloscope. The percent reduction in the stickiness due to the presence of the substance (compared to tubes without glass beads) is measured and the average of 4 - 6 determinations is taken.

[3] = system: bleeding time; assay: prolongation of the bleeding time (method of Duke); type: in vivo; details: non-anesthetized mice, 10 mgm/kg per os, after one hour, compared to untreated animals; for change in vivo at 10 mg/kg: Mus musculus, po, 1 h
Source text: The prolonging effect upon the bleeding time was ascertained by the method of Duke, J. Amer. Med. Assoc. 15, 1185 (1910). 2. To determine the bleeding time, 10 mgm/kg of the test compound is given per os to non-anesthetized mice. After one hour, about 0.5 mm is cut off from the tail of each animal. The exuded blood is soaked up with filter paper every 30 seconds. The number of drops of blood so obtained is used as a measure for the bleeding time compared to untreated animals (5 animals/test).

[4] = system: anesthetized cats and dogs; assay: hypotensive tests (method of Eckenhoff); type: in vivo; details: in words, warm-blooded animals, such as mice
Procedure: The hypotensive tests were performed on anesthetized cats and dogs by the method of Eckenhoff, Amer. J. Physiol. 148, 582 (1947).

SMILES | inhibition at 50 µM [2] | change in vivo at 10 mg/kg [3] | other results
O=C(O)/C=C\C(=O)O.c1cnc2c(N3CCSCC3)nc(N3CCNCC3)nc2c1 [A, 2-piperazino-4-thiomorpholinopyrido[3,2-d]pyrimidine maleate] | 99% | 171% | LD50 at 336 h [1]: 413 mg/kg
CN1CCN(c2nc(N3CCSCC3)c3ncccc3n2)CC1 [B, 2-(n'-methyl-piperazino)-4-thiomorpholino-pyrido[3,2-d] pyrimidine dihydrochloride] | 53% | 118% | –
Cl.Cl.[O-][S+]1CCN(c2nc(N3CCNCC3)nc3cccnc23)CC1 [C, 2-piperazino-4-(1'-oxido-thiomorpholino)-pyrido[3,2-d] pyrimidine dihydrochloride] | 99% | – | LD50 at 336 h [1]: 872 mg/kg; hypotensive activity [4]: particularly pronounced
CN1CCN(c2nc(N3CC[S+]([O-])CC3)c3ncccc3n2)CC1 [D, 2-(n'-methyl-piperazino)-4-(1'-oxido-thiomorpholino)-pyrido[3,2-d]pyrimidine dihydrochloride] | 87% | 88% | –
[O-][S+]1CCN(c2nc(N(CCCO)CCCO)nc3cccnc23)CC1 [E, 2-(dipropanol-amino)-4-(1'-oxido-thiomorpholino)-pyrido[3,2-d]pyrimidine hydrochloride] | 88% | 40% | –
c1cnc2c(N3CCNCC3)nc(N3CCSCC3)nc2c1 [Example 27, 2-Thiomorpholino-4-piperazino-pyrido[3,2-d]pyrimidine] | – | – | hypotensive activity [4]: particularly pronounced
Cl.[O-][S+]1CCN(c2nc(N(CCO)CCCCCCO)nc3cccnc23)CC1 [F, 2-(n-ethanol-hexanolamino)-4-(1'-oxido-thiomorpholino)-pyrido[3,2-d]pyrimidine hydrochloride] | – | – | Reduction in Stickiness ([2]; 50 µM): 71%; Prolongation of Bleeding Time [3]: 35%
CC1CN(c2nc(N3CCNCC3)nc3cccnc23)CC[S+]1[O-] (stereo not shown) [G, 2-piperazino-4-(1'-oxido-2'-methyl-thiomorpholino)-pyrido[3,2-d]pyrimidinedihydrochloride] | 96% | 55% | –
c1cnc2c(N3CCOCC3)nc(N3CCNCC3)nc2c1 [H, 2-piperazino-4-morpholino-pyrido[3,2-d]pyrimidine dihydrochloride] | 96% | 55% | –
CN1CCN(c2nc(N3CCOCC3)c3ncccc3n2)CC1 [I, 2-(n'-methyl-piperazino)-4-morpholino-pyrido[3,2-d] pyrimidine dihydrochloride] | 70% | 40% | –
OCCCN(CCCO)c1nc(N2CCOCC2)c2ncccc2n1 [J, 2-(dipropanol-amino)-4-morpholino-pyrido[3,2-d]pyrimidine dihydrochloride] | 50% | 45% | –
c1cnc2c(N3CCCCC3)nc(N3CCNCC3)nc2c1 [K, 2-piperazino-4-piperidino-pyrido[3,2-d]pyrimidine dihydrochloride] | 39% | 138% | –
OCCCN(CCCO)c1nc(N2CCCCC2)c2ncccc2n1 [L, 2-(dipropanol-amino)-4-piperidino-pyrido[3,2-d]pyrimidine hydrochloride] | 20% | 103% | –
O=S1(=O)CCN(c2nc(N3CCNCC3)nc3cccnc23)CC1 [M, 2-piperazino-4-(1',1'-dioxide-thiomorpholino)-pyrido[3,2-d]pyrimidine dihydrochloride] | 88% | 98% | LD50 at 336 h [1]: > 250 mg/kg; mortality at 336 h [1]: 0%
Cl.Cl.c1cnc2c(N3CCCCC3)nc(N3CCSCC3)nc2c1 [N, 2-thiomorpholino-4-piperidino-pyrido[3,2-d]pyrimidine dihydrochloride] | 77% | 98% | LD50 at 336 h [1]: > 250 mg/kg; mortality at 336 h [1]: 0%
[O-][S+]1CCN(c2nc(N3CCNCC3)c3ncccc3n2)CC1 [O, 2-(1'-oxido-thiomorpholino)-4-piperazino-pyrido [3,2-d]pyrimidine] | 98% | 35% | LD50 at 336 h [1]: > 250 mg/kg; mortality at 336 h [1]: 0%; hypotensive activity [4]: particularly pronounced
Cc1ccc2nc(N3CCNCC3)nc(N3CC[S+]([O-])CC3)c2n1 [P, 2-piperazino-4-(1'-oxido-thiomorpholino)-6-methylpyrido[3,2-d]pyrimidine d ihydrochloride] | 89% | 98% | –
Cc1ccc2nc(N3CCSCC3)nc(N3CCNCC3)c2n1 [Q, 2-thiomorpholino-4-piperazino-6-methyl-pyrido[3,2-d] pyrimidine dihydrochloride] | 34% | – | –
